Experimental data published in US20230107941A1, “HEPATITIS B CAPSID ASSEMBLY MODULATORS” (Venatorx Pharmaceuticals, Inc., priority 2019, published 2023).

How the values were obtained:
[1] = In vitro cytotoxicity assay (MTT cell viability) in HepG2 cells; type: cell-based, human; details: human
Procedure: To evaluate antiviral selectivity, the cytotoxic activity of each compound was determined using a standard cell viability assay performed on the parental HepG2 cell line. Cell viability was determined by measuring the conversion of 3-(4,5-dimethylthiazol-2-yl)-2,5-diphenyltetrazolium bromide (MTT) to the insoluble formazan salt crystal that occurs in live cells. Briefly, HepG2 cells were seeded in 96-well plates at a density of 20,000 cells per well in […] (complete growth medium) and allowed to adhere overnight in a 37° C., […] humidified incubator. The next day, test agents were prepared by performing 8 half-log10 serial dilutions in 100% DMSO at 200× the final desired concentration in the assay. Compounds were tested over a range of concentrations from 30 μM to 1.0 nM in the assay. HepG2 cells were incubated in the presence of various concentrations of CAMs for 7 days in a 37° C., […] humidified incubator. At the completion of the 7-day incubation period, MTT reagent was added to each well and the mixture was incubated for an additional 3-4 hours. At the completion of the incubation period, all wells were aspirated to remove the culture medium. The formazan crystals were solubilized from the cell monolayers with 100% DMSO. Plates were briefly mixed on an orbital shaker and absorbance was measured at 492 nm using a Perkin-Elmer EnVision multi-label plate reader. All absorbance values were converted to a percentage of the signal obtained from the vehicle treated controls. Absorbance values at 492 nm are directly proportional to the number of viable cells present in the sample. A CC50 value (cytotoxic concentration that results in loss of 50% cell viability) was calculated from the dose-response curve by 4-parameter, non-linear regression analysis using the GraphPad Prism software. The positive control compound, staurosporine, reduced the viability of HepG2 cells in a dose-dependent manner (CC50=100 nM).

HBV = test: In vitro antiviral assay: anti-HBV replication in HepAD38 cells (extracellular HBV DNA by QPCR); type: cell-based, hepatitis B virus (genotype D, serotype ayw); details: Hepatitis B virus, HePAD38, 168 h, 7 days incubation, extracellular HBV DNA by QPCR, read-out: Anti-HBV EC50
Procedure: The anti-HBV activity of the Capsid Assembly Modulators (CAMs) was evaluated in a cell based assay utilizing the human hepatoma cell line HepAD38 (Ladner, S K., et al., 1998). HepAD38 cells were derived from the parental line, HepG2, that were stably transfected with a construct containing an HBV genome (genotype D, serotype ayw) under the control of a tetracycline repressible CMV promoter. Upon removal of tetracycline, viral pre-genomic RNA (pgRNA) and mRNAs are expressed and infectious viral particles are assembled and secreted into the culture medium providing a reliable, robust system to measure multiple steps of the HBV life cycle. Disruption of capsid formation results in reduced levels of DNA-containing virus particles that are released into the culture supernatant. To quantify the effect of CAMs on HBV replication, we developed a sensitive QPCR-based assay that measures extracellular HBV DNA levels upon treatment of HepAD38 cells with various concentrations of test compounds.
HepAD38 cells were maintained in DMEM/F12 medium containing 10% FBS, 400 μg/mL G418 and 0.3 μg/mL tetracycline (tet+ media) to maintain repression of HBV replication. To evaluate each compound, HepAD38 cells were seeded into 24-well collagen coated culture plates (Corning BioCoat) at a density of 200,000 cells per well in 1 mL of medium without tetracycline (tet-media) and allowed to adhere overnight at 37° C., 5% CO2 in a humidified incubator. The following day, media was refreshed and a dose range of each compound was prepared by performing 1 log10 serial dilutions in 100% DMSO at 200× the desired assay concentration. Dilutions were then added to the cells resulting in a final dose range of 1 μM to 10 pM and the plates were returned to the incubator. Following 7 days of incubation, culture supernatants were harvested and HBV DNA levels were evaluated by QPCR and compared to the vehicle treated control wells (i.e. DMSO alone).
To quantify HBV DNA levels, cell culture supernatants were diluted 1:10 in sterile, nuclease-free water (Gibco). The diluted supernatants were subsequently added to a PCR master mix containing 1× Roche Light Cycler Master Mix, 0.5 μM forward primer, 0.5 μM reverse primer (Fwd: 5′-[…] (SEQ ID NO 1); Rev: 5′-[…] (SEQ ID NO 2)), 0.2 μM Roche Universal Probe Library Probe 25. The volume was brought to 20 μL with nuclease-free water and amplification of the HBV target sequence was performed using a Roche LightCycler 480 QPCR instrument. PCR extended out to 45 cycles with each cycle consisting of a denaturation step at 95° C. for 10 sec., followed by an annealing step at 60° C. for 10 sec. and a brief extension step at 72° C. for 1 sec.
Extracellular HBV DNA levels, expressed in copies/mL, were determined by comparison to a standard curve (10^2-10^9 copies/mL) using the Roche LightCycler analysis software. These values were subsequently converted to percent inhibition of HBV replication by dividing the HBV DNA levels in the experimental samples with those obtained from the vehicle control (˜1-2×10^5 copies/mL). Potency, expressed as an EC50 (the effective concentration required to inhibit 50% of HBV replication), was calculated from the dose-response curve using a 4-parameter non-linear regression analysis (GraphPad Prism). The nucleoside analog inhibitor entecavir was used as a positive control to validate each assay run. The EC50 value of entecavir in the HepAD38 assay was 0.5 nM, as previously reported in the literature.

Compound | CC50 at 7 days [1] | EC50 (HBV)
Cc1cc(NC(=O)c2c(C)c(C(=O)C(=O)NC34CC(O)(C3)C4)n(C)c2C)ccc1F [Example 82, N-(4-fluoro-3-methylphenyl)-5-(2-((3-hydroxybicyclo[1.1.1]pentan-1-yl)amino)-2-oxoacetyl)-1,2,4-trimethyl-1H-pyrrole-3-carboxamide] | > 30000 nM | < 50 nM
Cc1c(C(=O)Nc2ccc(B(O)O)cc2)c(C)n(C)c1C(=O)C(=O)NC(C)(C)C [Example 45, (4-(5-(2-(tert-butylamino)-2-oxoacetyl)-1,2,4-trimethyl-1H-pyrrole-3-carboxamido)phenyl)boronic acid] | > 30000 nM | 500 to 1000 nM
CC(=O)N1CC[C@@H](NC(=O)C(=O)c2c(C)c(C(=O)Nc3ccc(F)c(C)c3)c(C)n2C)[C@H](F)C1 [Example 147, 5-(2-(((3R,4R)-1-acetyl-3-fluoropiperidin-4-yl)amino)-2-oxoacetyl)-N-(4-fluoro-3-methylphenyl)-1,2,4-trimethyl-1H-pyrrole-3-carboxamide] | > 30000 nM | < 50 nM
Cc1cc(NC(=O)c2c(C)c(C(=O)C(=O)N[C@]3(C)C[C@H](O)C3)n(C)c2C2CC2)ccc1F [Example 128, 2-cyclopropyl-N-(4-fluoro-3-methylphenyl)-5-(2-(((1s,3s)-3-hydroxy-1-methylcyclobutyl)amino)-2-oxoacetyl)-1,4-dimethyl-1H-pyrrole-3-carboxamide] | > 30000 nM | < 50 nM
Cc1cc(NC(=O)c2c(C)c(C(=O)C(=O)N[C@]3(C)C[C@H](O)C3)n(C)c2C(C)C)ccc1F [Example 109, N-(4-fluoro-3-methylphenyl)-5-(2-(((1s,3s)-3-hydroxy-1-methylcyclobutyl)amino)-2-oxoacetyl)-2-isopropyl-1,4-dimethyl-1H-pyrrole-3-carboxamide] | > 30000 nM | 50 to 499 nM
Cc1cc(NC(=O)c2c(C)c(C(=O)C(=O)N[C@H]3CC[C@@H](O)CC3)n(C)c2C2CC2)ccc1F [Example 115, 2-cyclopropyl-N-(4-fluoro-3-methylphenyl)-5-(2-(((1s,4s)-4-hydroxycyclohexyl)amino)-2-oxoacetyl)-1,4-dimethyl-1H-pyrrole-3-carboxamide] | > 30000 nM | < 50 nM
Cc1cc(Cl)cc(NC(=O)c2c(C)c(C(=O)C(=O)N[C@]3(C)CC[C@@H](O)CC3)n(C)c2C)c1 [Example 169, N-(3-chloro-5-methylphenyl)-5-(2-(((1r,4r)-4-hydroxy-1-methylcyclohexyl)amino)-2-oxoacetyl)-1,2,4-trimethyl-1H-pyrrole-3-carboxamide] | 5000 to 30000 nM | < 50 nM
Cc1c(C(=O)Nc2ccc(F)cc2)c(C)n(C)c1C(=O)C(=O)N[C@]1(C)CC[C@@H](O)CC1 [Example 137, N-(4-fluorophenyl)-5-(2-(((1r,4r)-4-hydroxy-1-methylcyclohexyl)amino)-2-oxoacetyl)-1,2,4-trimethyl-1H-pyrrole-3-carboxamide] | > 30000 nM | < 50 nM
Cc1cc(NC(=O)c2c(C)c(C(=O)C(=O)N[C@]3(C)CC[C@H](O)CC3)n(C)c2-c2ccccn2)ccc1F [Example 157, N-(4-fluoro-3-methylphenyl)-5-(2-(((1s,4s)-4-hydroxy-1-methylcyclohexyl)amino)-2-oxoacetyl)-1,4-dimethyl-2-(pyridin-2-yl)-1H-pyrrole-3-carboxamide] | > 30000 nM | 50 to 499 nM
Cc1cc(NC(=O)c2c(C)c(C(=O)C(=O)NC3(CC(=O)O)CCNCC3)n(C)c2C)ccc1F [Example 145, 2-(4-(2-(4-((4-fluoro-3-methylphenyl)carbamoyl)-1,3,5-trimethyl-1H-pyrrol-2-yl)-2-oxoacetamido)piperidin-4-yl)acetic acid] | > 30000 nM | 50 to 499 nM
Cc1c(C(=O)Nc2cccc(B(O)O)c2)c(C)n(C)c1C(=O)C(=O)NC(C)(C)C [Example 46, (3-(5-(2-(tert-butylamino)-2-oxoacetyl)-1,2,4-trimethyl-1H-pyrrole-3-carboxamido)phenyl)boronic acid] | > 30000 nM | 500 to 1000 nM
Cc1c(C(=O)Nc2ccc(F)c(C#N)c2)c(C)n(C)c1C(=O)C(=O)NC1(C)CC(O)C1 (stereo not shown) [Example 83, N-(3-cyano-4-fluorophenyl)-5-(2-((3-hydroxy-1-methylcyclobutyl)amino)-2-oxoacetyl)-1,2,4-trimethyl-1H-pyrrole-3-carboxamide] | > 30000 nM | < 50 nM
Cc1cc(NC(=O)c2c(C)c(C(=O)C(=O)N[C@]3(C)CC[C@H](O)CC3)n(C)c2-c2ccsc2)ccc1F [Example 183, N-(4-fluoro-3-methylphenyl)-5-(2-(((1s,4s)-4-hydroxy-1-methylcyclohexyl)amino)-2-oxoacetyl)-1,4-dimethyl-2-(thiophen-3-yl)-1H-pyrrole-3-carboxamide] | > 30000 nM | 50 to 499 nM
Cc1cc(NC(=O)c2c(C)c(C(=O)C(=O)NCC(C)(C)O)n(C)c2-c2nccs2)ccc1F [Example 178, N-(4-fluoro-3-methylphenyl)-5-(2-((2-hydroxy-2-methylpropyl)amino)-2-oxoacetyl)-1,4-dimethyl-2-(thiazol-2-yl)-1H-pyrrole-3-carboxamide] | > 30000 nM | > 1000 nM
Cc1cc(NC(=O)c2c(C(C)C)c(C(=O)C(=O)NCC(C)(C)O)n(C)c2C)ccc1F [Example 94, N-(4-fluoro-3-methylphenyl)-5-(2-((2-hydroxy-2-methylpropyl)amino)-2-oxoacetyl)-4-isopropyl-1,2-dimethyl-1H-pyrrole-3-carboxamide] | > 30000 nM | 500 to 1000 nM
CCc1c(C(=O)Nc2ccc(F)c(C)c2)c(C)c(C(=O)C(=O)N[C@]2(C)CC[C@H](O)CC2)n1C [Example 107, 2-ethyl-N-(4-fluoro-3-methylphenyl)-5-(2-(((1s,4s)-4-hydroxy-1-methylcyclohexyl)amino)-2-oxoacetyl)-1,4-dimethyl-1H-pyrrole-3-carboxamide] | > 30000 nM | < 50 nM
Cc1cc(NC(=O)c2c(C)c(C(=O)C(=O)N[C@]3(C)C[C@H](O)C3)n(C)c2CC2CC2)ccc1F [Example 123, 2-(cyclopropylmethyl)-N-(4-fluoro-3-methylphenyl)-5-(2-(((1s,3s)-3-hydroxy-1-methylcyclobutyl)amino)-2-oxoacetyl)-1,4-dimethyl-1H-pyrrole-3-carboxamide] | > 30000 nM | < 50 nM
